Results reported in US20070208166A1, “Tao Kinase Modulators And Method Of Use” (Exelixis, Inc., priority 2003, published 2007).

Tests used:
Type in all cases: biochemical
TAO = biological target: T1, TAO (Homo sapiens, UniProt Q9UL54); assay: TAO Luciferase-Coupled Chemiluminescent Kinase assay (LCCA); conditions: 2 μM ATP, 10 μM MBP, 12 nM TAO, 2 hours; read-out: TAO inhibition IC50
T1 sequence (Q9UL54 1-1235): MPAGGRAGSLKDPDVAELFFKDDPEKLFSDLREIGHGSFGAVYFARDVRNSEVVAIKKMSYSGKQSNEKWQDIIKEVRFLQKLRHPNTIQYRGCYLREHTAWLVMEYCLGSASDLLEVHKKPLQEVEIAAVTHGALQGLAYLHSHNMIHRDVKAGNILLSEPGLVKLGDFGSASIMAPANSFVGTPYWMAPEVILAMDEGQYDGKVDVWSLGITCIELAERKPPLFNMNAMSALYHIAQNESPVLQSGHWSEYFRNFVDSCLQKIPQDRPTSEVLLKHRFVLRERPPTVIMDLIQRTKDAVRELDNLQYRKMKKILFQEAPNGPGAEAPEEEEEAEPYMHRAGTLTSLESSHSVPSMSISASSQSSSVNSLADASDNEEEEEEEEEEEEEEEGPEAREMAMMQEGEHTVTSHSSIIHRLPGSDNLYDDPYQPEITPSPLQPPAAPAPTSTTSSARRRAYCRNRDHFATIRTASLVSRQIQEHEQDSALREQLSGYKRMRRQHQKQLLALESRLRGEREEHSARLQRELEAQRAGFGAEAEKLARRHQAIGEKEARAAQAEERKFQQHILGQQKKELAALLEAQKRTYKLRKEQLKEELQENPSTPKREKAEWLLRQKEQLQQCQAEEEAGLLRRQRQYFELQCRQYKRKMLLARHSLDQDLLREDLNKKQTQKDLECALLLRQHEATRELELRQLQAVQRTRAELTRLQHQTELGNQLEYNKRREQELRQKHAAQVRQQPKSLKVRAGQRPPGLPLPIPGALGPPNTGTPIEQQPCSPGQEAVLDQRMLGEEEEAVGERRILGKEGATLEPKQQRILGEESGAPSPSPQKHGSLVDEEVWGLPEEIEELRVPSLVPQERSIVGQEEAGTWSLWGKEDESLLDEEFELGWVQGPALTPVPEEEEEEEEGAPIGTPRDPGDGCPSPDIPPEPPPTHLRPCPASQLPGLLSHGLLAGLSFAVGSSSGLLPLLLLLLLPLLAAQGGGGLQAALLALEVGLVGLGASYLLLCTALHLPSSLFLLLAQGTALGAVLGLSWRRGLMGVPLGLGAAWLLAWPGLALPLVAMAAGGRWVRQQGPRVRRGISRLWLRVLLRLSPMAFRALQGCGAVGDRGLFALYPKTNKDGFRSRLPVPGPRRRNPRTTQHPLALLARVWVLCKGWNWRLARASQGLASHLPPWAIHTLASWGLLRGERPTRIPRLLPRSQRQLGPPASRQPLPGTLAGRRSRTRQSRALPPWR
Experimental: (§1) Kinase activity and compound inhibition are investigated using one or more of the three assay formats described below. The ATP concentrations for each assay are selected to be close to the Michaelis-Menten constant (KM) for each individual kinase. Dose-response experiments are performed at 10 different inhibitor concentrations in a 384-well plate format. The data are fitted to four-parameter equation (2) below; where Y is the observed signal, X is the inhibitor concentration, Min is the background signal in the absence of enzyme (0% enzyme activity), Max is the signal in the absence of inhibitor (100% enzyme activity), IC50 is the inhibitor concentration at 50% enzyme inhibition and H represents the empirical Hill's slope to measure the cooperativity. Typically H is close to unity. Y=Min+(Max−Min)/(1+(X/IC50)ˆH) Equation (2) KIAA 1361 Assay: […]
(§2) TAO biochemical activity was assessed using a Luciferase-Coupled Chemiluminescent Kinase assay (LCCA) format. Kinase activity was measured as the percent ATP remaining following the kinase reaction. Remaining ATP was detected by luciferase-luciferin-coupled chemiluminescence. Specifically, the reaction was initiated by mixing test compounds, 2 μM ATP, 10 μM MBP and 12 nM TAO (baculovirus expressed human KIAA 1361 kinase domain 2-322) in a 20 uL assay buffer (20 mM Tris-HCL pH7.5, 10 mM MgCl2, 0.02% Triton X-100, 100 mM DTT, 2 mM MnCl2). The mixture is incubated at ambient temperature for 2 hours after which 20 uL luciferase-luciferin mix is added and the chemiluminescent signal read using a Wallac Victor^2 reader. The luciferase-luciferin mix consists of 50 mM BEPES, pH 7.8, 8.5 ug/mL oxalic acid (pH 7.8), 5 (or 50) mM DTT, 0.4% Triton X-100, 0.25 mg/nL coenzyme A, 63 uM AMP, 28 ug/mL luciferin and 40,000 units of light/mL luciferase.

[1] = biological target: T2, KIAA 1361 (baculovirus expressed human KIAA 1361 kinase domain 2-322) (Homo sapiens, UniProt Q7L7X3); assay: KIAA 1361 Luciferase-Coupled Chemiluminescent Kinase assay (LCCA); conditions: 2 μM ATP, 10 μM MBP, 12 nM KIAA 1361, 2 hours; read-out: KIAA1361 inhibition IC50
T2 construct: human KIAA 1361 kinase domain 2-322; made in house
T2 sequence (Q7L7X3 2-322): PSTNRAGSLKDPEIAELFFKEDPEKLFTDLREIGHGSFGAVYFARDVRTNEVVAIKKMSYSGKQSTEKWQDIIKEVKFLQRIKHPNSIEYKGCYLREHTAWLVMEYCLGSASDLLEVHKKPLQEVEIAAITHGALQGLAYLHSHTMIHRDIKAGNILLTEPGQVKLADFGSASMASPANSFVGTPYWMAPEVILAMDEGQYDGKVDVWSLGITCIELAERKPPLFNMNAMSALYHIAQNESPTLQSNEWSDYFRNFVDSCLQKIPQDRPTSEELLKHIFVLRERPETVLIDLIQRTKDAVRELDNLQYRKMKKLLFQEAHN
Experimental: as §1
as §2, with “KIAA 1361” for “TAO”, “HEPES,” for “BEPES,”, “mg/mL” for “mg/nL”

JIK = biological target: T3, JIK (Homo sapiens, UniProt Q9H2K8); assay: JIK Luciferase-Coupled Chemiluminescent Kinase assay (LCCA); conditions: 2 μM ATP, 10 μM MBP, 6 nM JIK, 2 hours; read-out: JIK inhibition IC50
T3 construct: 6 nM JIK (baculovirus expressed human KIAA 1361 kinase domain2-318); made in house
T3 sequence (Q9H2K8 2-318): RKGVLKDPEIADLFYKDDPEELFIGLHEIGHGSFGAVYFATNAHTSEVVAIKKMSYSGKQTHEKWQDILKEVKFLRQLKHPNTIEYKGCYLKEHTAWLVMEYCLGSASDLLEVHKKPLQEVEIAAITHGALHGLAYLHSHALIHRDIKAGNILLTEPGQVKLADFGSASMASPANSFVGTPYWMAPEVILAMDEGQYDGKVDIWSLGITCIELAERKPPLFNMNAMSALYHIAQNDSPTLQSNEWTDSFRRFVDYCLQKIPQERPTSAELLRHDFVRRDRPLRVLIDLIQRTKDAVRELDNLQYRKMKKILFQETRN
Experimental: as §1
as §2, with “JIK” for “TAO”, “6” for “12”, “domain2-318)” for “domain 2-322)”, “HEPES,” for “BEPES,”, “mg/mL” for “mg/nL”

IC50 (TAO)	IC50 [1]	IC50 (JIK)	Compound
0.5 to 5 µM	0.5 to 5 µM	0.05 to 0.5 µM	O=C(CNC(=O)c1ccc(N2CCCCC2)cc1)NC1CCCc2ccccc21 (stereo not drawn) [Entry 77, N-[2-oxo-2-(1,2,3,4-tetrahydronaphthalen-1-ylamino)ethyl]-4-piperidin-1-ylbenzamide]
0.05 to 0.5 µM	< 0.05 µM	< 0.05 µM	O=C(COc1ccc(-c2nccc(-c3ccccn3)n2)cc1)NCc1ccc(Cl)c(Cl)c1 [Entry 38, N-[(3,4-dichlorophenyl)methyl]-2-{[4-(4-pyridin-2-ylpyrimidin-2-yl)phenyl]oxy]acetamide]
0.05 to 0.5 µM	0.05 to 0.5 µM	< 0.05 µM	O=C(COc1ccc(Br)cc1)NCC(=O)NC1CCCc2ccccc21 (stereo not drawn) [Entry 3, N˜2˜-{[(4-bromophenyl)oxy]acetyl}-N-(1,2,3,4-tetrahydronaphthalen-1-yl)glycinamide]
0.5 to 5 µM	0.05 to 0.5 µM	< 0.05 µM	COc1cc2cc(C(=O)N[C@@H](Cc3c[nH]c4ccccc34)C(=O)NC3CCCc4ccccc43)[nH]c2cc1OC (stereo partly drawn) [Entry 13, Nalpha-{[5,6-bis(methyloxy)-1H-indol-2-yl]carbonyl}-N-(1,2,3,4-tetrahydronaphthalen-1-yl)tryptophanamide]
> 5 µM	> 5 µM	> 5 µM	CCc1ccc(-c2ccc(C(=O)NCC(=O)NCCc3ccccc3)cc2)cc1 [Entry 75, 4′-ethyl-N-{2-oxo-2-[(2-phenylethyl)amino]ethyl}biphenyl-4-carboxamide]
> 5 µM	> 5 µM	> 5 µM	O=C(CNC(=O)NCCc1ccc(-c2ccccc2)cc1)NC1CCCc2ccccc21 (stereo not drawn) [Entry 72, N˜2˜-{[(2-biphenyl-4-ylethyl)amino]carbonyl}-N-(1,2,3,4-tetrahydronaphthalen-1-yl)glycinamide]
0.5 to 5 µM	0.05 to 0.5 µM	< 0.05 µM	COc1ccc(/C=C/C(=O)N2Cc3[nH]cnc3CC2C(=O)NCCc2cccc(Cl)c2)cc1OC (stereo not drawn) [Entry 15, 5-{(2E)-3-[3,4-bis(methyloxy)phenyl]prop-2-enoyl}-N-[2-(3-chlorophenyl)ethyl]-4,5,6,7-tetrahydro-3H-imidazol[4,5-c]pyridine-6-carboxamide]
0.5 to 5 µM	0.05 to 0.5 µM	0.05 to 0.5 µM	O=C(CNC(=O)COc1ccc(Br)cc1)NCc1ccc(Cl)c(Cl)c1 [Entry 25, N˜2˜-{[(4-bromophenyl)oxy]acetyl}-N-[(3,4-dichlorophenyl)methyl]glycinamide]
0.5 to 5 µM	0.05 to 0.5 µM	0.05 to 0.5 µM	CCCCc1ccc(NC(=O)N2CCC[C@H]2C(=O)NCc2ccc(Cl)c(Cl)c2)cc1 [Entry 22, (2S)-N˜-1˜-(4-butylphenyl)-N˜2˜-[(3,4-dichlorophenyl)methyl]pyrrolidine-1,2-dicarboxamide]
> 5 µM	> 5 µM	> 5 µM	CCOCCCNC(=O)c1ccc(C(=O)NCC2COc3ccccc3O2)cc1N (stereo not drawn) [Entry 62, 2-amino-N-˜4˜-(2,3-dihydro-1,4-benzodioxin-2-ylmethyl)-N˜1˜-[3-(ethyloxy)propyl]benzene-1,4-dicarboxamide]
0.05 to 0.5 µM	0.05 to 0.5 µM	0.05 to 0.5 µM	O=C(CNC(=O)c1ccc(Oc2ccccc2)cc1)NC1CCCc2ccccc21 (stereo not drawn) [Entry 49, N-[2-oxo-2-(1,2,3,4-tetrahydronaphthalen-1-ylamino)ethyl]-4-(phenyloxy)benzamide]
0.05 to 0.5 µM	0.05 to 0.5 µM	0.05 to 0.5 µM	CCCCCCCOc1ccc(C(=O)NCC(=O)NC2CCCc3ccccc32)cc1 (stereo not drawn) [Entry 8, 4-(heptyloxy)-N-[2-oxo-2-(1,2,3,4-tetrahydronaphthalen-1-ylamino)ethyl]benzamide]
< 0.05 µM	< 0.05 µM	< 0.05 µM	CCc1ccc(-c2ccc(C(=O)NCC(=O)NC3CCCc4ccccc43)cc2)cc1 (stereo not drawn) [Entry 4, 4′-ethyl-N-[2-oxo-2-(1,2,3,4-tetrahydronaphthalen-1-ylamino)ethyl]biphenyl-4-carboxamide]
